Patent US5700833A, “Isocarbacyclin derivatives” (Research Developement Corporation of Japan, priority 1995, dated 1997)

How the values were obtained:
[1] = test system: prostacyclin receptor (CNS) in the thalamus ([^3 H] isocarbacyclin receptor); assay: Displacement test relative to tritium-labelled isocarbacyclin, thalamus (CNS), autoradiography of frozen brain sections; assay type: binding, rat; conditions: for Binding ratio to [^3 H] isocarbacyclin receptor: thalamus (CNS), 10 nM [^3 H]isocarbacyclin, 4° C., 2 h, pH 7.4
Method: (§1) Blood ingredients were removed from the brain of a rat by systemic perfusion, and were frozen, thus preparing a frozen section having a thickness of 10 μm. This section was incubated with 10 nM [^3 H]isocarba cyclin and isocarbacyclin derivatives at various concentrations, at 4° C. for two hours in 50 mM Tris/HCl pH 7.4 and 20 mM MgCl2 solution. After incubation and washing, the solution was dried, thereby preparing an autoradiography film of the section. A displacement value for each derivative was determined by quantitative analysis of the autoradiography (n=at least 4).
1) The results in the thalamus (CNS) are shown in Tables 1 and 2 for the following compounds: [drawing 27]

[2] = target: T1, prostacyclin receptor (PNS) in the medulla oblongata nucleus ([^3 H] isocarbacyclin receptor) (Rattus norvegicus, UniProt P43253); assay: Displacement test relative to tritium-labelled isocarbacyclin, medulla oblongata nucleus (PNS), autoradiography of frozen brain sections; conditions: 10 nM [^3 H]isocarbacyclin, 4° C., 2 h, pH 7.4, read-out: Binding ratio to [^3 H] isocarbacyclin receptor; for activity at 0.3 µM: un-labelled compound 3 × 10^-7 M; for activity at 0.03 µM: un-labelled compound 3 × 10^-8 M; for activity at 0.003 µM: un-labelled compound 3 × 10^-9 M; for activity at 1 µM: un-labelled compound 10^-6 M; for activity at 0.1 µM: un-labelled compound 10^-7 M; for activity at 0.01 µM: un-labelled compound 10^-8 M
T1 construct: Blood ingredients were removed from the brain of a rat by systemic perfusion; from tissue; host or cells: rat brain, frozen sections, medulla oblongata nucleus (nucleus solitarius) read by autoradiography
T1 sequence (P43253 whole entry, the tested form may be a part): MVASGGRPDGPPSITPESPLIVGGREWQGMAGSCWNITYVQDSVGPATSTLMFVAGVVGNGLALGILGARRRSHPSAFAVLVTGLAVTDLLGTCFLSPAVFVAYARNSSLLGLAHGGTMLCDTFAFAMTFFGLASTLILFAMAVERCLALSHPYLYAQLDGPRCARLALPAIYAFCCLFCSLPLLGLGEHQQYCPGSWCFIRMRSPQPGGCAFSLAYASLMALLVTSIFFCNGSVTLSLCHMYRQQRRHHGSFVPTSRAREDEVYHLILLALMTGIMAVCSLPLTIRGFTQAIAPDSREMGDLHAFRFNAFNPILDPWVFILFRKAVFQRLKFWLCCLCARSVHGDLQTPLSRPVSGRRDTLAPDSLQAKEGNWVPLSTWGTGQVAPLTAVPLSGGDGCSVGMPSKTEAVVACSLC
Method: as §1

[3] = neutral or oxidizing conditions; cited from earlier work
platelets = assay: Platelet aggregation inhibiting activity (ADP-induced, platelet rich plasma); assay type: cell-based, rat; conditions: for IC50: rat platelet rich plasma, 100 μM ADP, 5 μl, 37° C., 1 min preincubation
Method: Blood was totally taken from the abdominal aorta of an anesthetized rat (body weight: 500 g). Then, 1/10 volume part of 3.8% sodium citrate was added to the sampled blood and the mixture was centrifugally separated at 1,000 rpm for ten minutes to achieve an upper layer of platelet rich plasma (PRP). The lower layer was then further centrifugally separated at 3,000 rpm for ten minutes to prepare platelet poor plasma (PPP). The number of platelets in PRP was measured, and PPP was diluted to adjust the number to […] to serve as a platelet solution. The platelet solution was placed in an amount of 90 μl into a cuvette, and the drug to be tested in an amount of […] was added for incubation at 37° C. for one minute. Then, an aggregation agent (100 μM ADP) in an amount of 5 μl was added to cause aggregation of platelets, and changes in […] were measured. Control of aggregation activity was conducted by using turbidity upon addition of physiological saline.

[4] = test system: prostacyclin binding sites in cerebral hemisphere; conditions: autoradiography, frozen cryostat sections; cited from earlier work
nervous system = conditions: cited from earlier work
dopamine D1 receptors = conditions: cited from earlier work
[5] = test system: binding site of iloprost in platelets; conditions: cited from earlier work
[6] = test system: platelets aggregation / vasodilation; conditions: compared with natural prostacyclin; cited from earlier work
[7] = un-labelled compound 3 × 10^-7 M, 0.3 µM
[8] = un-labelled compound 3 × 10^-8 M, 0.03 µM
[9] = un-labelled compound 3 × 10^-9 M
[10] = un-labelled compound 10^-6 M, 1 µM
[11] = un-labelled compound 10^-7 M, 0.1 µM

Row | Structure (SMILES) | Binding ratio to [^3 H] isocarbacyclin receptor [1, 7] [%] | Binding ratio to [^3 H] isocarbacyclin receptor [1, 8] [%] | Binding ratio to [^3 H] isocarbacyclin receptor [1, 9] [%] | Binding ratio to [^3 H] isocarbacyclin receptor [1, 10] [%] | Binding ratio to [^3 H] isocarbacyclin receptor [1, 11] [%] | Binding ratio to [^3 H] isocarbacyclin receptor ([1]; un-labelled compound 10^-8 M) [%] | activity at 0.3 µM [2] [%] | activity at 0.03 µM [2] [%] | activity at 0.003 µM [2] [%] | activity at 1 µM [2] [%] | activity at 0.1 µM [2] [%] | activity at 0.01 µM [2] [%] | IC50 (platelets) [µM] | other results
1 | CCCCC[C@H](O)/C=C/[C@@H]1[C@H]2C/C(=C/CCCC(=O)O)O[C@H]2C[C@H]1O [Natural prostacyclin] | – | – | – | – | – | – | – | – | – | – | – | – | – | chemical stability [3]: easily inactivated under neutral or oxidizing conditions
2 | Cc1cccc(C[C@H](O)/C=C/[C@@H]2[C@H]3CC(CCCCC(=O)O)=C[C@H]3C[C@H]2O)c1 [Compound B] | 36.6 | 84.6 | 98.6 | 20.1 | 58.0 | 93.9 | 39.5 | 80.5 | 96.6 | 33.8 | 54.8 | 88.3 | 0.019 | –
3 | CC#CCC(C)[C@H](O)/C=C/[C@@H]1[C@H]2C/C(=C/CCCC(=O)O)C[C@H]2C[C@H]1O (some centres unmarked) [[^3 H] iloprost] | – | – | – | – | – | – | – | – | – | – | – | – | – | prostacyclin binding sites found [4]: prostacyclin binding sites in corpus striatum, amygdala, hippocampus and part of the cerebral cortex
4 | CC#CCC(C)[C@H](O)/C=C/[C@@H]1[C@H]2C/C(=C/CCCC(=O)O)C[C@H]2C[C@H]1O (some centres unmarked) [iloprost] | – | – | – | – | – | – | – | – | – | – | – | – | – | effects on the nervous system (nervous system): sedation, anticonvulsation, antihypoxemia (prolongation effects in hypoxemia) and synchronizing induction effects of brain waves antagonized by amphetamine; prevention of the binding of dopamine D1 receptors (dopamine D1 receptors): prevention of the binding of dopamine D1 receptors
5 | Cc1cccc(C[C@@H](O)/C=C/[C@@H]2[C@H]3CC(CCCCC(=O)O)=C[C@H]3C[C@H]2O)c1 [Compound A, 15R-16-(3-methylphenyl)-17, 18, 19, 20-tetranolisocarbacycline] | 25.4 | 67.0 | 97.4 | 15.7 | 48.3 | 89.2 | 69.8 | 79.3 | – | 52.5 | – | 74.1 | > 0.4 | binding to the thalamic prostacyclin receptor (CNS) ([1]; in words): firmly bound to the thalamic prostacyclin receptor (CNS); activity relative to the prostacyclin receptor (CNS) in the thalamus ([1]; in words, compared with isocarbacyclin): an activity stronger than that of isocarbacyclin; activity at 0.001 µM ([2]; un-labelled compound 10^-9 M (so in the source)): 84.7%; platelet aggregation inhibiting activity (platelets; in words): almost no platelet aggregation inhibiting activity

More lines, main results first:

Row | Binding ratio to [^3 H] isocarbacyclin receptor [1, 7] [%] | Binding ratio to [^3 H] isocarbacyclin receptor [1, 8] [%] | Binding ratio to [^3 H] isocarbacyclin receptor [1, 9] [%] | Binding ratio to [^3 H] isocarbacyclin receptor [1, 10] [%] | Binding ratio to [^3 H] isocarbacyclin receptor [1, 11] [%] | Binding ratio to [^3 H] isocarbacyclin receptor ([1]; un-labelled compound 10^-8 M) [%] | activity at 0.3 µM [2] [%] | activity at 0.03 µM [2] [%] | activity at 0.003 µM [2] [%] | activity at 1 µM [2] [%] | activity at 0.1 µM [2] [%] | activity at 0.01 µM [2] [%] | IC50 (platelets) [µM] | Structure (SMILES) | other results
6 | 94.1 | 98.4 | 101.1 | 88.5 | 100.8 | 99.8 | 45.8 | 80.6 | 96.9 | 34.4 | 55.6 | 92.8 | – | Cc1cccc(CCC[C@H](O)/C=C/[C@@H]2[C@H]3CC(CCCCC(=O)O)=C[C@H]3C[C@H]2O)c1 [Compound D] | –
7 | 73.3 | 93.8 | 98.7 | 48.1 | 85.9 | 96.1 | 71.8 | 89.9 | 95 | 53.5 | 81.3 | 92 | – | Cc1cccc(CCC[C@@H](O)/C=C/[C@@H]2[C@H]3CC(CCCCC(=O)O)=C[C@H]3C[C@H]2O)c1 [Compound C] | –
8 | – | – | – | – | – | – | – | – | – | – | – | – | 0.063 | CCCCC[C@H](O)/C=C/[C@H]1[C@H](O)CC(=O)[C@@H]1CCCCCCC(=O)O [Prostaglandin E1, reference compound] | reaction with the binding site of iloprost [5]: the binding site of iloprost reacts also with PGE1
9 | 34.7 | 76.4 | 99.2 | 19.3 | 62.7 | 94.5 | 22.5 | 57.3 | 94 | 8 | – | 79 | 0.0025 | CCCCC[C@H](O)/C=C/[C@@H]1[C@H]2CC(CCCCC(=O)O)=C[C@H]2C[C@H]1O [Isocarbacyclin, 9(O)-methano-Δ^6(9α) prostaglandin I1] | platelets aggregation inhibiting functions and vasodilating antihypertensive effects [6]: strong platelets aggregation inhibiting functions and vasodilating antihypertensive effects and other biological activities well comparable with those of natural prostacyclin
